The source of these data is patent US20080279819A1, “Combinations Therapy for Treatment of Demyelinating Conditions” (Adamas Pharmaceuticals, Inc., priority 2005, published 2008).

Series [1] in a line: Release profile of memantine and atorvastatin combination (cumulative fraction released). Format: physicochemical. The note with it: released from formulation matrix, USP II Paddle, water. The text has this: The cumulative fraction is the amount of drug substance released from the formulation matrix to the serum or gut environment (e.g., U.S. Pat. No. 4,839,177) or as measured with a USP II Paddle system using water as the dissolution medium.

The conditions of series [2]: five doses at about 0.25 to about 1 mg/kg intravenous, 14 day interval; cited from earlier work.

As for `CC(C)c1c(C(=O)Nc2ccccc2)c(-c2ccccc2)c(-c2ccc(F)cc2)n1CC[C@@H](O)C[C@@H](O)CC(=O)O` [ATORVASTATIN, atorvastatin], the cum. fraction in series [1] (Time 1) was found to be 0.15; in series [1] (Time 2) it was 0.30; in series [1] (Time 4), 0.45; in series [1] (Time 8), 0.60; in series [1] (Time 12), 0.75; in series [1] (Time 16), 0.90. Moreover, the cum. fraction in series [1] (Time 20) is 0.98; in series [1] (Time 24) it was 0.99.
With “daclizumab: multiple sclerosis agent daclizumab (ZENAPAX), given intravenously”, in series [2], the Peak serum concentrations is 21 to 32 µg/mL.
